This note sets out measurements from patent US7560468B2, “Substituted 1,4,8-triazaspiro[4,5]decan-2-one compounds” (Gruenenthal GmbH, priority 2004, dated 2009).

Test [1] relates to batrachotoxin (BTX) binding site of the sodium channel. The experiment in a line: Affinity to the batrachotoxin (BTX) binding site of the sodium channel. As to conditions: rat cerebrocortex synaptosomes, [3H]-batrachotoxinin A20 α-benzoate 10 nM; test concentration not given.
The next test concerns the target T1, 5-HT transporter (Rattus norvegicus, UniProt P31652).
T1 construct: from tissue; host or cells: rat brain synaptosomes (marrow/medulla and pons), P2 fraction
The test can be described thus: Inhibition of 5-HT uptake in synaptosomes. The class given is biochemical. The settings on record: for inhibition at 1 µM: read-out: Uptake_5-HT, rat, 1 μM, % inhibition.

T1 sequence (P31652 whole entry): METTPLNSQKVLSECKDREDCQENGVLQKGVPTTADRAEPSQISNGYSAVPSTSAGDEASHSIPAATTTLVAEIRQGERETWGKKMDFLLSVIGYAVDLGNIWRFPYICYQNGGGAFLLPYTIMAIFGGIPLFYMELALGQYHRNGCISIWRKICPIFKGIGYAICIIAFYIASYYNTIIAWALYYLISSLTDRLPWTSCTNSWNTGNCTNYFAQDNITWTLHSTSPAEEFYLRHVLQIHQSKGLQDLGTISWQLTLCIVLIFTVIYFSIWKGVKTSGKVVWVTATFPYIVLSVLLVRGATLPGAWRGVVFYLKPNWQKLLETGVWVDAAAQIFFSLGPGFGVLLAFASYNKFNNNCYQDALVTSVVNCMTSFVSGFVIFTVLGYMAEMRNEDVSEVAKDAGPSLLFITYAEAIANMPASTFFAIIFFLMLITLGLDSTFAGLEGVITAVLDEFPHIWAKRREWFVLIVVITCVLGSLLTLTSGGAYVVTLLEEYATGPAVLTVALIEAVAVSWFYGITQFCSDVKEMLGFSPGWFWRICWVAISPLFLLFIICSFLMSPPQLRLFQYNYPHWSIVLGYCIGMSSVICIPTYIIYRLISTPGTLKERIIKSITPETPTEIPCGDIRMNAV

In the case of `CCOc1ccc(NC(=S)N2CCC3(CC2)NC(CCSC)C(=O)N3Cc2ccc(F)cc2)cc1` (stereo not drawn) [Example 200, 1-(4-Fluorobenzyl)-3-(2-methylsulfanylethyl)-2-oxo-1,4,8-triazaspiro[4,5]decan-8-thiocarboxylic acid (4-ethoxy-benzol)amide], the “BTX Inhibition” value in test [1] was determined as 30. Moreover, the “Uptake_5-HT, rat, 1 μM, % inhibition” value on 5-HT transporter was found to be 30%.
In the same order, the values of `CCCc1ccc(S(=O)(=O)N2CCC3(CC2)NC(Cc2ccccc2)C(=O)N3CC(=O)OCC)cc1` (stereo not drawn) [Example 67, Ethyl[3-benzyl-2-oxo-8-(4-propylbenzolsulfonyl)-1,4,8-triazaspiro[4,5]dec-1-yl]-acetate] are 40 and 64%.
For orientation: inhibition means the change of the read-out against control, counted positive when it falls. For the compound `COCCNC(=S)N1CCC2(CC1)NC(CCSC)C(=O)N2Cc1ccc2ccccc2c1` (stereo not drawn) [Example 121, 3-(2-Methylsulfanylethyl)-1-naphthalin-2-ylmethyl-2-oxo-1,4,8-triazaspiro[4,5]decan-8-thiocarboxylic acid (2-methoxy-ethyl)amide], the “BTX Inhibition” value in test [1] is on record as 47. Also, the inhibition at 1 µM at 5-HT transporter amounted to 39%.
On to `CCOc1ccc(NC(=O)N2CCC3(CC2)NC(CCSC)C(=O)N3Cc2ccc(F)cc2)cc1` (stereo not drawn) [Example 243, 1-(4-Fluorobenzyl)-3-(2-methylsulfanylethyl)-2-oxo-1,4,8-triazaspiro[4,5]decan-8-carboxylic acid (4-ethoxy-benzol)amide], for which the “BTX Inhibition” value in test [1] amounted to 48. The “Uptake_5-HT, rat, 1 μM, % inhibition” value on 5-HT transporter is 40%.
The matching figures for `O=C1C(Cc2ccccc2)NC2(CCN(S(=O)(=O)c3ccccc3F)CC2)N1Cc1ccccc1` (stereo not drawn) [Example 37, 1,3-Dibenzyl-8-(2-fluorobenzolsulfonyl)-1,4,8-triazaspiro[4,5]decan-2-one]: 61 and 73%.
The matching figures for `CCOC(=O)CN1C(=O)C(Cc2ccccc2)NC12CCN(S(=O)(=O)c1ccc(F)c(Cl)c1)CC2` (stereo not drawn) [Example 69, Ethyl[3-benzyl-8-(3-chloro-4-fluorobenzolsulfonyl)-2-oxo-1,4,8-triazaspiro[4,5]dec-1-yl]-acetate]: 73 and 62%.
Regarding `CSCCC1NC2(CCN(C(=S)Nc3ccccc3C)CC2)N(Cc2ccc(F)cc2)C1=O` (stereo not drawn) [Example 186, 1-(4-Fluorobenzyl)-3-(2-methylsulfanylethyl)-2-oxo-1,4,8-triazaspiro[4,5]decan-8-thiocarboxylic acid o-tolylamide], in test [1], the “BTX Inhibition” value came out at 52. Further, the inhibition at 1 µM at 5-HT transporter came to 55%.
For the compound `Cc1cc(C)c(S(=O)(=O)N2CCC3(CC2)NCC(=O)N3Cc2cccc(C#N)c2)c(C)c1` [Example 59, 3-[2-Oxo-8-(2,4,6-trimethylbenzolsulfonyl)-1,4,8-triazaspiro[4,5]dec-1-ylmethyl]-benzonitrile], in test [1], the “BTX Inhibition” value worked out at 50. Moreover, the “Uptake_5-HT, rat, 1 μM, % inhibition” value at 5-HT transporter is listed as 50%.
Turning to `Cc1cc(C)c(S(=O)(=O)N2CCC3(CC2)NC(C(C)C)C(=O)N3Cc2ccccc2)c(C)c1` (stereo not drawn) [Example 14, 1-Benzyl-3-isopropyl-8-(2,4,6-trimethylbenzolsulfonyl)-1,4,8-triazaspiro[4,5]decan-2-one], the “BTX Inhibition” value in test [1] worked out at 68. For the same compound, the “Uptake_5-HT, rat, 1 μM, % inhibition” value at 5-HT transporter is given as 61%.
On to `CCCCN1C(=O)C(Cc2ccccc2)NC12CCN(S(=O)(=O)c1ccccc1C(F)(F)F)CC2` (stereo not drawn) [Example 22, 3-Benzyl-1-butyl-8-(2-trifluoromethylbenzolsulfonyl)-1,4,8-triazaspiro[4,5]decan-2-one], for which, in test [1], the “BTX Inhibition” value stood at 38. For the same compound, the “Uptake_5-HT, rat, 1 μM, % inhibition” value at 5-HT transporter is on record as 66%.
Take `CC(=O)c1cccc(NC(=S)N2CCC3(CC2)NC(Cc2ccccc2)C(=O)N3Cc2ccccc2F)c1` (stereo not drawn) [Example 201, 3-Benzyl-1-(2-fluorobenzyl)-2-oxo-1,4,8-triazaspiro[4,5]decan-8-thiocarboxylic acid (3-acetylbenzol)amide]: in test [1], the “BTX Inhibition” value was 63. Besides, on 5-HT transporter, the “Uptake_5-HT, rat, 1 μM, % inhibition” value is 54%.
The matching figures for `CCOC(=O)CN1C(=O)C(Cc2ccccc2)NC12CCN(S(=O)(=O)c1ccccc1)CC2` (stereo not drawn) [Example 66, Ethyl(8-benzolsulfonyl-3-benzyl-2-oxo-1,4,8-triazaspiro[4,5]dec-1-yl)acetate]: 39 and 64%.
Take `C=CCN1C(=O)C(CCSC)NC12CCN(S(=O)(=O)c1c(C)cc(OC)c(C)c1C)CC2` (stereo not drawn) [Example 79, 1-Allyl-8-(4-methoxy-2,3,6-trimethylbenzolsulfonyl)-3-(2-methylsulfanylethyl)-1,4,8-triazaspiro[4,5]decan-2-one]: in test [1], the “BTX Inhibition” value is reported as 67. Further, the “Uptake_5-HT, rat, 1 μM, % inhibition” value on 5-HT transporter is recorded as 37%.
For `O=C1C(Cc2ccccc2)NC2(CCN(S(=O)(=O)c3ccccc3)CC2)N1Cc1ccccc1F` (stereo not drawn) [Example 71, 8-Benzolsulfonyl-3-benzyl-1-(2-fluorobenzyl)-1,4,8-triazaspiro[4,5]decan-2-one], the “BTX Inhibition” value in test [1] is reported as 85. For the same compound, the “Uptake_5-HT, rat, 1 μM, % inhibition” value at 5-HT transporter is 76%.
`CCOC(=O)CN1C(=O)C(Cc2ccccc2)NC12CCN(C(=S)Nc1ccccc1C(=O)OC)CC2` (stereo not drawn) [Example 145, Methyl 2-[(3-benzyl-1-ethoxycarbonylmethyl-2-oxo-1,4,8-triazaspiro[4,5]decan-8-carbothioyl)amino]-benzoate]: the “BTX Inhibition” value in test [1] worked out at 69. Also, the inhibition at 1 µM on 5-HT transporter amounted to 67%.
With `CCCCN1C(=O)C(CCSC)NC12CCN(C(=O)Nc1ccc(Cl)c(C(F)(F)F)c1)CC2` (stereo not drawn) [Example 227, 1-Butyl-3-(2-methylsulfanylethyl)-2-oxo-1,4,8-triazaspiro[4,5]decan-8-carboxylic acid (4-chloro-3-trifluoromethylbenzol)amide], the “BTX Inhibition” value in test [1] was found to be 85. For the same compound, the “Uptake_5-HT, rat, 1 μM, % inhibition” value at 5-HT transporter is recorded as 58%.
As to `CCCCN1C(=O)C(Cc2ccccc2)NC12CCN(S(=O)(=O)c1ccc(CC)cc1)CC2` (stereo not drawn) [Example 33, 3-Benzyl-1-butyl-8-(4-ethylbenzolsulfonyl)-1,4,8-triazaspiro[4,5]decan-2-one], in test [1], the “BTX Inhibition” value is given as 54. Also, the “Uptake_5-HT, rat, 1 μM, % inhibition” value on 5-HT transporter amounted to 67%.
Regarding `CCOC(=O)NC(=S)N1CCC2(CC1)NC(CCSC)C(=O)N2Cc1ccccc1C#N` (stereo not drawn) [Example 146, Ethyl[1-(2-cyanobenzyl)-3-(2-methylsulfanylethyl)-2-oxo-1,4,8-triazaspiro[4,5]decan-8-carbothioyl]-carbamate], the “BTX Inhibition” value in test [1] was 30. In addition, the inhibition at 1 µM at 5-HT transporter came to 30%.
The matching figures for `CCCCN1C(=O)C(C(C)C)NC12CCN(C(=S)Nc1cccc(C)c1)CC2` (stereo not drawn) [Example 124, 1-Butyl-3-isopropyl-2-oxo-1,4,8-triazaspiro[4,5]decan-8-thiocarboxylic acid m-tolylamide]: 41 and 47%.
`CSCCC1NC2(CCN(C(=S)Nc3cc(F)ccc3F)CC2)N(Cc2ccccc2)C1=O` (stereo not drawn) [Example 140, 1-Benzyl-3-(2-methylsulfanylethyl)-2-oxo-1,4,8-triazaspiro[4,5]decan-8-thiocarboxylic acid (2,5-difluorobenzol)amide]: the “BTX Inhibition” value in test [1] worked out at 53. At 5-HT transporter, the “Uptake_5-HT, rat, 1 μM, % inhibition” value was found to be 59%.
As to `CCOC(=O)CN1C(=O)C(Cc2ccccc2)NC12CCN(S(=O)(=O)c1cccs1)CC2` (stereo not drawn) [Example 48], the “BTX Inhibition” value in test [1] is on record as 30. In addition, the “Uptake_5-HT, rat, 1 μM, % inhibition” value on 5-HT transporter came out at 85%.
Turning to `CC(C)C1NC2(CCN(S(=O)(=O)c3ccc4c(c3)CN(C(=O)C(F)(F)F)CC4)CC2)N(Cc2cccc(C#N)c2)C1=O` (stereo not drawn) [Example 77, 3-{3-Isopropyl-2-oxo-8-[2-(2,2,2-trifluoroacetyl)-1,2,3,4-tetrahydroisoquinolin-7-sulfonyl]-1,4,8-triazaspiro[4,5]dec-1-ylmethyl}-benzonitrile], in test [1], the “BTX Inhibition” value is reported as 36. In addition, at 5-HT transporter, the inhibition at 1 µM was found to be 32%.
Take `CCOC(=O)CN1C(=O)C(Cc2ccccc2)NC12CCN(S(=O)(=O)c1cc(OC)ccc1OC)CC2` (stereo not drawn) [Example 74, Ethyl[3-benzyl-8-(2,5-dimethoxy-benzolsulfonyl)-2-oxo-1,4,8-triazaspiro[4,5]dec-1-yl]-acetate]: the “BTX Inhibition” value in test [1] is on record as 30. The “Uptake_5-HT, rat, 1 μM, % inhibition” value on 5-HT transporter worked out at 74%.
Regarding `CN1C(=O)C(Cc2ccccc2)NC12CCN(C(=O)NC1CCCCC1)CC2` (stereo not drawn) [Example 202, 3-Benzyl-1-methyl-2-oxo-1,4,8-triazaspiro[4,5]decan-8-carboxylic acid cyclohexylamide], the “BTX Inhibition” value in test [1] amounted to 56. The inhibition at 1 µM at 5-HT transporter was determined as 34%.
Take `C=CCN1C(=O)C(C(C)C)NC12CCN(C(=S)Nc1cc(F)ccc1F)CC2` (stereo not drawn) [Example 128, 1-Allyl-3-isopropyl-2-oxo-1,4,8-triazaspiro[4,5]decan-8-thiocarboxylic acid (2,5-difluorobenzol)amide]: the “BTX Inhibition” value in test [1] was 33. Further, the “Uptake_5-HT, rat, 1 μM, % inhibition” value on 5-HT transporter came out at 57%.
As for `CSCCC1NC2(CCN(C(=S)NC(C)c3ccccc3)CC2)N(Cc2ccc3ccccc3c2)C1=O` (stereo not drawn) [Example 148, 3-(2-Methylsulfanylethyl)-1-naphthalin-2-ylmethyl-2-oxo-1,4,8-triazaspiro[4,5]decan-8-thiocarboxylic acid (1-benzol-ethyl)amide], the “BTX Inhibition” value in test [1] turned out to be 88. Besides, the “Uptake_5-HT, rat, 1 μM, % inhibition” value at 5-HT transporter was determined as 49%.
`CCCCOc1ccc(S(=O)(=O)N2CCC3(CC2)NCC(=O)N3Cc2ccccc2C#N)cc1` [Example 5, 2-[8-(4-Butoxy-benzolsulfonyl)-2-oxo-1,4,8-triazaspiro[4,5]dec-1-ylmethyl]-benzonitrile]: in test [1], the “BTX Inhibition” value is 59. Moreover, the “Uptake_5-HT, rat, 1 μM, % inhibition” value at 5-HT transporter was 30%.
Turning to `CCCCN1C(=O)C(CCSC)NC12CCN(S(=O)(=O)c1cccc(C)c1)CC2` (stereo not drawn) [Example 18, 1-Butyl-3-(2-methylsulfanylethyl)-8-(toluol-3-sulfonyl)-1,4,8-triazaspiro[4,5]decan-2-one], the “BTX Inhibition” value in test [1] stood at 32. Further, the “Uptake_5-HT, rat, 1 μM, % inhibition” value at 5-HT transporter is reported as 68%.
For `CCCCN1C(=O)C(C(C)C)NC12CCN(S(=O)(=O)c1ccccc1C(=O)OC)CC2` (stereo not drawn) [Example 15, Methyl 2-(1-butyl-3-isopropyl-2-oxo-1,4,8-triazaspiro[4,5]decan-8-sulfonyl)benzoate], on 5-HT transporter, the inhibition at 1 µM is 44%.
